Key:
[1] = system: baboons (Papio anubis); experiment: Vascular graft occlusion studies, collagen coated 2 mm i.d. grafts, high arterial shear; type: in vivo, baboon (Papio anubis)
Experimental: Thrombus formation was initiated within the baboon AV shunt by interposing a thrombogenic segment of prosthetic vascular graft (ePTFE, WL Gore & Co., Flagstaff, Ariz.), as previously described (Hanson et al. (1993) J. Clin. Invest. 92:2003-2012). To consistently trigger platelet-dependent thrombus formation, the clinical graft segments were coated with immobilized collagen. Twenty mm long grafts having internal diameters (i.d.) of either 2 or 4 mm were filled with equine type I collagen (1 mg/ml; Nycomed Arzenmittel, Munich, Germany) for 15 min, and then dried overnight under sterile airflow. This method produced a uniform collagen coating within the graft lumen as determined by scanning electron microscopy (FIGS. 1B and 1C). The thrombogenic collagen-coated grafts were then incorporated between segments of silicon rubber tubing, and deployed into the AV shunts (FIG. 1A). The grafts were exposed to blood for up to 60 min. During each experiment, the blood flow rate through the graft was restricted to 100 ml/min by clamping the proximal silicone rubber shunt segment, thereby producing a mean wall shear rate (MWSR) in the 4 mm grafts of 265 s^−1, while in the 2 mm grafts the initial MWSR was 2120 s^−1. Flow rates were continuously monitored using an ultrasonic flow meter (Transonics Systems, Ithaca, N.Y.). […] Baseline blood flow was restored through the permanent shunt after each experiment. In the 2 mm diameter grafts blood flow rates progressively declined due to thrombus formation. The grafts were removed from the AV shunts when the flow rate fell from 100 ml/min to below 20 ml/min, signaling imminent occlusion. The time from initiation of blood flow to graft removal (<20 ml/min blood flow) was taken as the occlusion time.
Occlusion studies were performed using 10 mm long 2 mm i.d. collagen coated devices which produced high arterial shear rates (2120 s^−1 at 100 ml/min clamped blood flow). Accumulation of labeled platelets onto 2 mm thrombogenic grafts were measured in 3-min intervals using a gamma scintillation camera. Flow was maintained at 100 ml/min by proximal clamping for as long as possible, and then allowed to decrease as the propagating thrombus began to occlude the device. A final blood flow rate of 20 ml/min was used as a cutoff for occlusion, since a fully occlusive thrombi and lack of blood flow through the device could lead to occlusion of the shunt and a significant loss of blood for the animals.
Since aspirin is a less antihemostatic agent than heparin, and it is often included in the standard treatment of arterial-type platelet-dependent thrombosis, ASA was used in the current studies with the occlusion-prone 2 mm i.d. grafts as a long-acting positive control. ASA (32 mg/kg) was administered orally 2-4 h before each thrombosis experiment, as described previously (Hanson et al. (1985) J. Clin. Invest. 75:1591-1599). Four weeks were allowed for washout of each aXIMab and ASA before performing new experiments in the same animal.

[2] = system: baboons; experiment: Standard template skin bleeding time test (Surgicutt); type: in vivo, baboon
Experimental: The effects of FXI inhibition and aspirin on primary hemostasis in baboons were assessed using the standard template skin bleeding time test (Surgicutt®, International Technidyne Corp). […] All bleeding time measurements were performed by the same expert technician. For indirect assessment of hemostasis, aPTT and PT measurements were also performed.

[3] = system: baboons; experiment: Observation for adverse reactions and bleeding events; type: in vivo, baboon; conditions: one week follow-up periods of observation
[4] = system: baboons; experiment: Effect of locally infused PPACK during local sampling; type: in vivo, baboon; conditions: PPACK 0.5 mg/ml infused locally at 20 μl/min
Experimental: A novel local sampling method was used to assess the local production of thrombogenic mediators by sampling blood that superfused propagating experimental thrombi. […] All blood samples were collected into 1/10th volume 3.8% citrate anticoagulant. Systemic samples (1 ml each) were collected before initiation of thrombosis as well as 30 and 60 min into each study. A total of 6 local blood samples were drawn from the peripheral blood IBL at a rate of 100 μl/min over 10 min intervals out of a 0.64 mm port which was located 10 mm distal to the growing thrombus (FIG. 1A). […] Infusion and sampling were regulated by syringe pumps (Harvard Apparatus). Local sampling was performed only with the 4 mm i.d. devices in this study.

effect on bleeding time / hemostasis ([2]; FIG. 6, compared with no treatment controls)	standard template bleeding time ([2]; vehicle-treated controls 3.4±0.2 min) [min]	SMILES	platelet deposition ([1]; 2 mm i.d. grafts)	Number occluded ([1]; 2 mm i.d. grafts, 60 min)	Embolic events per experiment ([1]; 2 mm i.d. grafts, mean ± SEM)	Fibrin deposition ([1]; 2 mm i.d. grafts, mean ± SEM, control 0.30 ± 0.04) [mg]	grafts remained patent ([1]; 2 mm i.d. grafts, over 60 min)	time to graft occlusion prolonged by (average) ([1]; in 4 grafts, ASA 32 mg/kg orally) [min]	adverse bleeding events [3]	systemic prothrombin times (PT) or activated partial thromboplastin times (aPTT) [4]
prolonged the bleeding time	6.4 ± 0.7	CC(=O)Oc1ccccc1C(=O)O [ASA, acetylsalicylic acid, reference compound]	reduced platelet deposition	4/6	1.5 ± 0.6	0.23 ± 0.04	2	18	No re-bleeding phenomena, petechiae, hematomas or other adverse bleeding events	–
–	–	NC(N)=NCCC[C@H](NC(=O)[C@@H]1CCCN1C(=O)[C@H](N)Cc1ccccc1)C(=O)CCl [PPACK, Phe-Pro-Arg-chloromethylketone]	–	–	–	–	–	–	–	did not affect

— patent US10577428B2, “Anti-factor XI monoclonal antibodies and methods of use thereof” (Oregon Health & Science University, priority 2007, dated 2020)
